Columns and labels:
Test in all cases: KINOMEscan binding assay
CDKL3 = target: T1, CDKL3 (Homo sapiens, UniProt Q8IVW4); conditions: read-out: % Retention on Solid Support
T1 construct: purchased DiscoveRx KINOMEscan
In short: (§1)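 Over 400 kinases were screened. i-CDK9 was applied at 1 and 10 µM. Occupancy was read by competition with an active site-directed ligand.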

PFTK1 = target: T2, PFTK1 (Homo sapiens, UniProt O94921)
T2 construct: purchased DiscoveRx KINOMEscan
In short: as §1

PCTK2 = target: T3, PCTK2 (Homo sapiens, UniProt Q00537); conditions: read-out: % Retention on Solid Support
T3 construct: purchased DiscoveRx KINOMEscan
In short: as §1

PIP5K1A = target: T4, PIP5K1A (Homo sapiens, UniProt Q99755); conditions: read-out: % Retention on Solid Support
T4 construct: purchased DiscoveRx KINOMEscan
In short: as §1

[1] = target: T5, ABL1(T315I)-nonphosphorylated (Homo sapiens, UniProt P00519, T315I); conditions: read-out: % Retention on Solid Support
T5 construct: purchased DiscoveRx KINOMEscan
In short: as §1

AKT2 = target: T6, AKT2 (Homo sapiens, UniProt P31751); conditions: read-out: % Retention on Solid Support
T6 construct: purchased DiscoveRx KINOMEscan
In short: as §1

[2] = target: T7, ABL1(F317I)-nonphosphorylated (Homo sapiens, UniProt P00519, F317I); conditions: read-out: % Retention on Solid Support
T7 construct: purchased DiscoveRx KINOMEscan
In short: as §1

VEGFR2 = target: T8, VEGFR2 (Homo sapiens, UniProt P35968); conditions: read-out: % Retention on Solid Support
T8 construct: purchased DiscoveRx KINOMEscan
In short: as §1

MAP3K4 = target: T9, MAP3K4 (Homo sapiens, UniProt Q9Y6R4); conditions: read-out: % Retention on Solid Support
T9 construct: purchased DiscoveRx KINOMEscan
In short: as §1

EPHB4 = target: T10, EPHB4 (Homo sapiens, UniProt P54760); conditions: read-out: % Retention on Solid Support
T10 construct: purchased DiscoveRx KINOMEscan
T10 sequence (P54760 16-987): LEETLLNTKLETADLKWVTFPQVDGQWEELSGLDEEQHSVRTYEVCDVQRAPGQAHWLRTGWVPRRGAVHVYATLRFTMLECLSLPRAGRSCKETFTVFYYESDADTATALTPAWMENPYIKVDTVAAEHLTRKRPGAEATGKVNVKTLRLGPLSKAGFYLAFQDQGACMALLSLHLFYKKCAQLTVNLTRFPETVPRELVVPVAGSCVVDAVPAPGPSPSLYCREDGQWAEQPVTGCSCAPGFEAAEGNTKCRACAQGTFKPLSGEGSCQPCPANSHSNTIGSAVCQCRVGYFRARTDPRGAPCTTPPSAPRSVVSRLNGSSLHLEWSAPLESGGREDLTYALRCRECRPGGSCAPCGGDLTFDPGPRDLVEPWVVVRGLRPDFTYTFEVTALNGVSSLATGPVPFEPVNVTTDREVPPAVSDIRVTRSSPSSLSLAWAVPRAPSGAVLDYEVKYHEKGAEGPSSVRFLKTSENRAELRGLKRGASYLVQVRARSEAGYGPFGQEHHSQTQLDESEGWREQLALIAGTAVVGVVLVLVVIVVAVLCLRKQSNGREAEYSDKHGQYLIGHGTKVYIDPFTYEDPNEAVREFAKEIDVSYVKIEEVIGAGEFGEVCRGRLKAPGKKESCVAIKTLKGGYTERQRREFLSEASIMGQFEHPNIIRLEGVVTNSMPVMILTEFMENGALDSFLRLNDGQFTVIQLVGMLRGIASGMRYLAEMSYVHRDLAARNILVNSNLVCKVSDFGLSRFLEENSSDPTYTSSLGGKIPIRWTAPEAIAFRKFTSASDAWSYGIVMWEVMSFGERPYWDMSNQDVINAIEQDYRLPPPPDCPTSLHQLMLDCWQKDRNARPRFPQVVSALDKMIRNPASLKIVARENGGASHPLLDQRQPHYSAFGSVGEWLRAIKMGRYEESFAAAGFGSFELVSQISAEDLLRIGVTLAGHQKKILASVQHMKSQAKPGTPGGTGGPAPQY
In short: as §1

TEC = target: T11, TEC (Homo sapiens, UniProt P42680); conditions: read-out: % Retention on Solid Support
T11 construct: purchased DiscoveRx KINOMEscan
In short: as §1

PAK6 = target: T12, PAK6 (Homo sapiens, UniProt Q9NQU5); conditions: read-out: % Retention on Solid Support
T12 construct: purchased DiscoveRx KINOMEscan
In short: as §1

PKN2 = target: T13, PKN2 (Homo sapiens, UniProt Q16513); conditions: read-out: % Retention on Solid Support
T13 construct: purchased DiscoveRx KINOMEscan
In short: as §1

YANK1 = target: T14, YANK1 (Homo sapiens, UniProt Q8WU08); conditions: 1 µM i-CDK9; read-out: % Retention on Solid Support
T14 construct: purchased DiscoveRx KINOMEscan
In short: as §1

WEE2 = target: T15, WEE2 (Homo sapiens, UniProt P0C1S8); conditions: read-out: % Retention on Solid Support
T15 construct: purchased DiscoveRx KINOMEscan
In short: as §1

KIT(D816H) = target: T16, KIT(D816H) (Homo sapiens, UniProt P10721, D816H); conditions: 1 µM i-CDK9; read-out: % Retention on Solid Support
T16 construct: purchased DiscoveRx KINOMEscan
In short: as §1

MARK2 = target: T17, MARK2 (Homo sapiens, UniProt Q7KZI7); conditions: read-out: % Retention on Solid Support
T17 construct: purchased DiscoveRx KINOMEscan
In short: as §1

CHEK2 = target: T18, CHEK2 (Homo sapiens, UniProt O96017); conditions: read-out: % Retention on Solid Support
T18 construct: purchased DiscoveRx KINOMEscan
In short: as §1

LRRK2(G2019S) = target: T19, LRRK2(G2019S) (Homo sapiens, UniProt Q5S007, G2019S); conditions: 1 µM i-CDK9; read-out: % Retention on Solid Support
T19 construct: purchased DiscoveRx KINOMEscan
In short: as §1

T6 sequence (P31751 whole entry): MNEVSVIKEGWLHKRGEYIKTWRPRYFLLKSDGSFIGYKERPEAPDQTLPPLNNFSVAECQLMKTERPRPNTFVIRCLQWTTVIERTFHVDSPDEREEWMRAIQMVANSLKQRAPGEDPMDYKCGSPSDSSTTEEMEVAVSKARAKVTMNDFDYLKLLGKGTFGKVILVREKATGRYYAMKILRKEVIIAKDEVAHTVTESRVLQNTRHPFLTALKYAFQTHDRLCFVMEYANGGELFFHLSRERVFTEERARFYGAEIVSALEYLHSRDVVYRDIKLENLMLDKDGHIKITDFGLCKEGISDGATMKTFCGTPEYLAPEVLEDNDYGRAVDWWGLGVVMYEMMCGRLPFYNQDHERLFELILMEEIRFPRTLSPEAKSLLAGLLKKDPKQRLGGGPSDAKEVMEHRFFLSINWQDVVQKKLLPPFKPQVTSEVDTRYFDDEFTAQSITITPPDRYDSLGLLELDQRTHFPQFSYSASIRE
T1 sequence (Q8IVW4 whole entry): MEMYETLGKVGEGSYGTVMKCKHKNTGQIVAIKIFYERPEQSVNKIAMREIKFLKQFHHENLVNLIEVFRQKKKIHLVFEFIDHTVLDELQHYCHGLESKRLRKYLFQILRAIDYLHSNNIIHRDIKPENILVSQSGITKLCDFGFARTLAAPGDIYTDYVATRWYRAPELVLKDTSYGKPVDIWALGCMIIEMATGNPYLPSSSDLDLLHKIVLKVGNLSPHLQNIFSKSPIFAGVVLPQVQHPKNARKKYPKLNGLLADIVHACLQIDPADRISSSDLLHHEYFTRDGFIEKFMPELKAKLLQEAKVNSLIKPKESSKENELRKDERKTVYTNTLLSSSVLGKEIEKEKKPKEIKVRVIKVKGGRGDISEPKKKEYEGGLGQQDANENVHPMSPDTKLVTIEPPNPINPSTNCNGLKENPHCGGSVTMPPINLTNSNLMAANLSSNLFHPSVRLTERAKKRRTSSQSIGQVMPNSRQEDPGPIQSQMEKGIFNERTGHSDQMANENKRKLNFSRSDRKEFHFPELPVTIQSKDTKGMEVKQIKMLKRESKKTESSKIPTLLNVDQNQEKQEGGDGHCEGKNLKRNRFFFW
T17 sequence (Q7KZI7 whole entry): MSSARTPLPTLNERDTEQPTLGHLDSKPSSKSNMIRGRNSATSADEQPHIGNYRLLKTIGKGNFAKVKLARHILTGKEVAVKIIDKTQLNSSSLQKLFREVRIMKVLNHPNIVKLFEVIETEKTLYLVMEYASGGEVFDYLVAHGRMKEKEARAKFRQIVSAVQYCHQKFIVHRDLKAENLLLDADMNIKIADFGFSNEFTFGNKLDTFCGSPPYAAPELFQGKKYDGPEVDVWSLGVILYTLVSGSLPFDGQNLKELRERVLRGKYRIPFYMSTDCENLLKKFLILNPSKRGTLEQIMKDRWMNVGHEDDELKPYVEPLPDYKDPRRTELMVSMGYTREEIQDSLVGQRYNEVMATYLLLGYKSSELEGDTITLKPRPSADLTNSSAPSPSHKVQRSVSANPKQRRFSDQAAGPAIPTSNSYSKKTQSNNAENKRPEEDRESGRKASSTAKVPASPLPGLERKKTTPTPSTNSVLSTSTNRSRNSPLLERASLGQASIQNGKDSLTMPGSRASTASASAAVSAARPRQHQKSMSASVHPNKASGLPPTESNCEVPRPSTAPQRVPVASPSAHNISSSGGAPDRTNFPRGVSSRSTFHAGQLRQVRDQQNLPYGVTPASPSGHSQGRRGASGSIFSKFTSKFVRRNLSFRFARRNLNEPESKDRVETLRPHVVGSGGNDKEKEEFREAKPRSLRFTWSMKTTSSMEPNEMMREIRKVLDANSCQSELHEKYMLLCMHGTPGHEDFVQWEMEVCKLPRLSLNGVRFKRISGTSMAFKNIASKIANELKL
T15 sequence (P0C1S8 whole entry): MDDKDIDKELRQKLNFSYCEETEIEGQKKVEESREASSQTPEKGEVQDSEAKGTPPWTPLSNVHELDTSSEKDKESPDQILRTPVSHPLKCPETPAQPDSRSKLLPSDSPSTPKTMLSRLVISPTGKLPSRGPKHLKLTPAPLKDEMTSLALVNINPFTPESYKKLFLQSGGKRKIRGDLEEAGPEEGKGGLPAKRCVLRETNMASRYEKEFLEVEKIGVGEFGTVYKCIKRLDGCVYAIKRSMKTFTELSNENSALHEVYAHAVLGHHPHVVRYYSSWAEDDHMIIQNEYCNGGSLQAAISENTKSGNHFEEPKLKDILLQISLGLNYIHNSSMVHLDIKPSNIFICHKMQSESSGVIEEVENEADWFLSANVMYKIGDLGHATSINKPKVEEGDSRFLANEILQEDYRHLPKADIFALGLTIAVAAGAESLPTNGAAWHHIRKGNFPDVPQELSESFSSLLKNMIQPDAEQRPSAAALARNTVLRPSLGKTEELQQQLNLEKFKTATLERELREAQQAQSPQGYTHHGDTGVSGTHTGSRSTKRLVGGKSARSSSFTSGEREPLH
T18 sequence (O96017 whole entry): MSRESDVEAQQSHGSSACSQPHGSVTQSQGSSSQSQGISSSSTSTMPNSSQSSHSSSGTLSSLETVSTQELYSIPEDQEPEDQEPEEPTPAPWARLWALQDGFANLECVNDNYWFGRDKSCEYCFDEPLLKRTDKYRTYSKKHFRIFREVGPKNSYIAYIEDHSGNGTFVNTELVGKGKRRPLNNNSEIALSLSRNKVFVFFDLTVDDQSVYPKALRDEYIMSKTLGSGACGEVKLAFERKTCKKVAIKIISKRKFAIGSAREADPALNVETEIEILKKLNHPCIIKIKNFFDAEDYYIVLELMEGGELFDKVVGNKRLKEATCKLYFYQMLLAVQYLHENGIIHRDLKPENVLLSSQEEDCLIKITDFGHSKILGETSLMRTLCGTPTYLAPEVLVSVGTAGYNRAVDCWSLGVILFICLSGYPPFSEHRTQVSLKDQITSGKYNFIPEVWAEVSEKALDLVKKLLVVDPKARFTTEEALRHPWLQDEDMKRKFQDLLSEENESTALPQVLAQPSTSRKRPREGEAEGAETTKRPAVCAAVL
T12 sequence (Q9NQU5 whole entry): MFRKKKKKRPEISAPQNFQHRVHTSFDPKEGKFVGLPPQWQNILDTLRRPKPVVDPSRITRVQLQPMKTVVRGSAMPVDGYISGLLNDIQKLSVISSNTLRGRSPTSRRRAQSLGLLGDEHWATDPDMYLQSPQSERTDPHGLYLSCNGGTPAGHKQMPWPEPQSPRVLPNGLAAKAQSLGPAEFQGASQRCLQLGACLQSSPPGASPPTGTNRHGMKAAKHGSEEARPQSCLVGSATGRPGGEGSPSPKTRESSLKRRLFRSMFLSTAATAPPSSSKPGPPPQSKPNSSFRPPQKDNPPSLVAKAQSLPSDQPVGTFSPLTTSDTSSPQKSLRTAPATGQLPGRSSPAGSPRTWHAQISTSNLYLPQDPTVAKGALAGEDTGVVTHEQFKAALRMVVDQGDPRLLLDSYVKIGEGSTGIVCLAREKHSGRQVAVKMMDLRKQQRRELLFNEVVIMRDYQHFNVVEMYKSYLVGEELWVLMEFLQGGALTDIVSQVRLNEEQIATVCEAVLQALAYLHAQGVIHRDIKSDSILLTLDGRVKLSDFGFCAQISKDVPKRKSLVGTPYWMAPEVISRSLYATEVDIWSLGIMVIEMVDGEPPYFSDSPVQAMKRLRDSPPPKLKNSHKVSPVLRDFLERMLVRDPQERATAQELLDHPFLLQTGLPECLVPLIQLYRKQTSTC
T8 sequence (P35968 20-1356): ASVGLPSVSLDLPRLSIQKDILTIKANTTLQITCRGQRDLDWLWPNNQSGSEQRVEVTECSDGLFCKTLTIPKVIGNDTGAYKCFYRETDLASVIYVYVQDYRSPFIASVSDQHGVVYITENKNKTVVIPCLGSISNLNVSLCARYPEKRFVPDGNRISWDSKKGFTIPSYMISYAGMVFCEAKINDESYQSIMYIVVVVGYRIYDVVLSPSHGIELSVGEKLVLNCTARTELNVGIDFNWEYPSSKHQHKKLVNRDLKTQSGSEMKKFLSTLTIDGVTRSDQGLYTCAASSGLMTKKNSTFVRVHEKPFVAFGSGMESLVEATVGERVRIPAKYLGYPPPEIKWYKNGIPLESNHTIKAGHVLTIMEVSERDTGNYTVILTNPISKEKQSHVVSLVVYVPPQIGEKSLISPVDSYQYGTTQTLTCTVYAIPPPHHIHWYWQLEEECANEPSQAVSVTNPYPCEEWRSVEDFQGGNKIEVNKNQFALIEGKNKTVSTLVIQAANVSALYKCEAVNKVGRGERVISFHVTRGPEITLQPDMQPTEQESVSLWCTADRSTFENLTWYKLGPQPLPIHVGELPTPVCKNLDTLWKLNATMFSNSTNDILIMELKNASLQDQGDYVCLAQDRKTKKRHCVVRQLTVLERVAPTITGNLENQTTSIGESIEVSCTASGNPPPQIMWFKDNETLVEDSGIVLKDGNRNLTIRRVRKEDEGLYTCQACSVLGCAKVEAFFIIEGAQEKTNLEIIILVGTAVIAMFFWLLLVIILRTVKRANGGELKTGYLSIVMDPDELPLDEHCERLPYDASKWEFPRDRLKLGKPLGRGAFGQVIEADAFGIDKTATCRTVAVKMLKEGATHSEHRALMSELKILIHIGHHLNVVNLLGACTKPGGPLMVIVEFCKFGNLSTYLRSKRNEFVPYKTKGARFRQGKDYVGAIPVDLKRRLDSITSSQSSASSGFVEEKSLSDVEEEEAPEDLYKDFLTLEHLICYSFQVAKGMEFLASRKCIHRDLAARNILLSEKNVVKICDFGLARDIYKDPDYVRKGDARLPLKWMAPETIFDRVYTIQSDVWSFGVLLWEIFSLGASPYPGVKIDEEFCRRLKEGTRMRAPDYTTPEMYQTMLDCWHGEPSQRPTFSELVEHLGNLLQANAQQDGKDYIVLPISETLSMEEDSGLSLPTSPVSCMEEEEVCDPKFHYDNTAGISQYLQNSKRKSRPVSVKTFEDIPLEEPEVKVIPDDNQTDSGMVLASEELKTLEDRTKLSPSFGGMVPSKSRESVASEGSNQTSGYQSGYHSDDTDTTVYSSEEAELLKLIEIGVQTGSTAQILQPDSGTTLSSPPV

With `N[C@H]1CC[C@H](Nc2cc(-c3cccc(NCc4cccc(F)c4)n3)c(Cl)cn2)CC1` [i-CDK9, N2′-(trans-4-aminocyclohexyl)-5′-chloro-N6-(3-fluorobenzyl)-2,4′-bipyridine-2′,6-diamine] the remaining binding at 1 µM (CDKL3; 1 µM i-CDK9) was 44%, the remaining binding at 10 µM (CDKL3; 10 µM i-CDK9) was 23% and the “% Retention on Solid Support” value (PFTK1; 1 µM i-CDK9) was 76%. The “% Retention on Solid Support” value (PFTK1; 10 µM i-CDK9) was 5.4%, the remaining binding at 1 µM (PCTK2; 1 µM i-CDK9) was 14% and the remaining binding at 10 µM (PCTK2; 10 µM i-CDK9) was 0.05%. For the same molecule, the remaining binding at 1 µM (PIP5K1A; 1 µM i-CDK9) was 83%, the remaining binding at 10 µM (PIP5K1A; 10 µM i-CDK9) was 99% and the remaining binding at 1 µM ([1]; 1 µM i-CDK9) was 100%. For the same molecule, the remaining binding at 10 µM ([1]; 10 µM i-CDK9) was 83%, the remaining binding at 1 µM (AKT2; 1 µM i-CDK9) was 89% and the remaining binding at 10 µM (AKT2; 10 µM i-CDK9) was 77%. It also gave a remaining binding at 1 µM ([2]; 1 µM i-CDK9) of 99%, a remaining binding at 10 µM ([2]; 10 µM i-CDK9) of 75% and a remaining binding at 1 µM (VEGFR2; 1 µM i-CDK9) of 83%. The remaining binding at 10 µM (VEGFR2; 10 µM i-CDK9) was 93%, the remaining binding at 1 µM (MAP3K4; 1 µM i-CDK9) was 87% and the remaining binding at 10 µM (MAP3K4; 10 µM i-CDK9) was 96%. It also gave a remaining binding at 1 µM (EPHB4; 1 µM i-CDK9) of 100%, a remaining binding at 10 µM (EPHB4; 10 µM i-CDK9) of 100% and a remaining binding at 1 µM (TEC; 1 µM i-CDK9) of 99%. The remaining binding at 10 µM (TEC; 10 µM i-CDK9) was 100%, the remaining binding at 1 µM (PAK6; 1 µM i-CDK9) was 100% and the remaining binding at 10 µM (PAK6; 10 µM i-CDK9) was 100%. It also gave a remaining binding at 1 µM (PKN2; 1 µM i-CDK9) of 52%, a remaining binding at 10 µM (PKN2; 10 µM i-CDK9) of 93% and a remaining binding at 1 µM (YANK1) of 100%. It also gave a remaining binding at 1 µM (WEE2; 1 µM i-CDK9) of 100%, a remaining binding at 10 µM (WEE2; 10 µM i-CDK9) of 100% and a remaining binding at 1 µM (KIT(D816H)) of 100%. It also gave a remaining binding at 1 µM (MARK2; 1 µM i-CDK9) of 76%, a remaining binding at 10 µM (MARK2; 10 µM i-CDK9) of 86% and a remaining binding at 1 µM (CHEK2; 1 µM i-CDK9) of 98%. It also gave a remaining binding at 10 µM (CHEK2; 10 µM i-CDK9) of 100% and a remaining binding at 1 µM (LRRK2(G2019S)) of 100%.
